In data set [1] the test system is influenza virus A/H5N2. Format: binding.
Data set [2] relates to influenza virus A/H1N1/NIB23. Briefly: fetuin binding inhibition test (FBI-test), influenza virus receptor binding inhibition assay.
For data set [3], the system named is influenza virus A/Н3N2/29/90. Described as above.
Data set [4] can be described thus: association in aqueous solution by dynamic light scattering (DLS). Format: physicochemical.
The nature of data set [5]: association (tectomer formation) on mica surface by scanning force microscopy (SFM). Format: physicochemical. The conditions noted are these: 0.1 mg/mL; for tectomer layer height on mica: рН 6.5, tapping mode in air.
[6] abbreviates: FBI-test, value in parentheses for monomeric sialoside.

Marks after values point to notes of the source that are not given here. A value given as a limit tells only on which side of the number the result lay.

The term IC50 denotes the concentration needed to halve the response being measured. As to `CC(=O)N[C@H]1[C@H]([C@H](O)[C@H](O)CO)O[C@@](O[C@H]2[C@@H](O)[C@@H](CO)O[C@@H](O[C@H]3[C@H](O)[C@@H](O)[C@H](O)O[C@@H]3CO)[C@@H]2O)(C(=O)O)C[C@@H]1O` [3’SL, Neu5Acα2-3Galβ1-4Glcβ], in data set [1], the IC50 is 150 µM and the Relative activity is given as 1(150)^b.

Regarding `CC(=O)N[C@H]1[C@H]([C@H](O)[C@H](O)CO)O[C@](OC[C@H]2O[C@@H](O[C@H]3[C@H](O)[C@@H](NC(C)=O)C(O)O[C@@H]3CO)[C@H](O)[C@@H](O)[C@H]2O)(C(=O)O)C[C@@H]1O` (some centres unmarked) [6’SLN, Neu5Acα2-6Galβ1-4GlcNAcβ], in data set [2] (setting [6]), the IC50 worked out at 150 µM. In data set [2] (inhibition of binding of fetuin peroxidase conjugate to immobilized virus, related to monomer 6’SLN = 1), this molecule registered a Relative activity of 1.

With `CC(=O)N[C@H]1[C@H]([C@H](O)[C@H](O)CO)O[C@@](OCc2ccccc2)(C(=O)O)C[C@@H]1O` [Neu5AcαOBn], the IC50 in data set [3] (setting [6]) came out at 150 µM. The Relative activity in data set [3] (inhibition of binding of fetuin peroxidase conjugate to virus immobilized on plastic, related to monomer Neu5AcαOBn = 1) was determined as 1.

On to Н-Gly4NH(СН2)10NHGly4-Н, for which, in data set [4] (neutral and basic media (рН 6.5 and 8.5, after NaHCO3 or Na2CO3), concentration ≤0.1 mg/mL), the “size of associates stable in aqueous media” value was 800–1200 nm. The “tectomer layer height on mica” value in data set [5] is 3.7–4.0 nm.

For Н-Gly4NH(СН2)10NHGly4-Н·2HCl, the “concentration at which the peptide associates in acidic solution” value in data set [4] (aqueous solution, рН < 5) is at least 500 µg/mL.

On to Н-Gly5-NH(СН2)2NH-Gly5-Н, for which the “tectomer layer height on mica” value in data set [5] was 3.3 nm. Besides, in data set [5] (рН 6.5, texp = 10 min, tapping mode in air), the “planar dimensions of islet-like tectomers on mica” value was 500–700 nm.

Values taken from article PMC4077438, “Biantennary oligoglycines and glyco-oligoglycines self-associating in aqueous medium” (Beilstein Journal of Organic Chemistry, 2014).
